One test concerns P388. Nature of the test: In vitro cytotoxicity was determined by quantitating P388 murine leukemia cells on a coultier counter following a 48 hour exposure of cells to the test compound. Type of test: functional, cell-based. The conditions noted are these: Mus musculus, P388, 48 h.
Usually IC50 stands for the concentration that inhibits the measured activity by half. Lower therefore signals greater potency in that assay. `Cc1cc(-c2c(F)cc3/c(=N/N(C)C)ccn(C4CC4)c3c2F)cc(C)n1`: the midpoint of inhibition, the IC50, lay at 0.27 µM.
In turn, `Cc1cc(-c2c(F)cc3/c(=N/Nc4ccccn4)ccn(C4CC4)c3c2F)cc(C)n1` had an IC50 of 1 µM.
The molecule `Cc1cc(-c2c(F)cc3c(=O)ccn(C4CC4)c3c2F)cc(C)n1` gave an IC50 of 9.7 µM.

For the next test, the system named is Mus musculus. Description: In vivo antitumor activity was observed in mice at a dose of 96 mg/kg administered intravenously. The conditions noted are these: route intravenous. It is filed as functional.
By T/C is commonly meant the ratio of treated to control. `COc1cc([C@@H]2c3cc4c(cc3[C@@H](O[C@@H]3O[C@@H]5CO[C@@H](C)O[C@H]5[C@H](O)[C@H]3O)[C@H]3COC(=O)[C@H]23)OCO4)cc(OC)c1O` [ETOPOSIDE] came in with a T/C of 3%.

The next test has as its system P388. Description: In vitro cytotoxicity was determined by quantitating P388 murine leukemia cells on a oultier counter following a 48 hour exposure of cells to the test compound. Type of test: functional, cell-based. The note with it: Mus musculus, P388, 48 h.
The molecule `Cc1cc(-c2c(F)cc3/c(=N/N)ccn(C4CC4)c3c2F)cc(C)n1` displayed an IC50 of 3 µM.

For another test, the system named is Mus musculus. Description: In vivo antitumor activity was observed in mice at a dose of […] administered intravenously, subcutaneously. Type of test: functional. The note with it: route intravenous.
The molecule `Cc1cc(-c2c(F)cc3/c(=N/Nc4ccccn4)ccn(C4CC4)c3c2F)cc(C)n1` gave a T/C of 37%.

For a further test, the target named is DNA topoisomerase II (Homo sapiens, UniProt P11388+Q02880). Description: Inhibitory activity in a cell-free assay of DNA cleavage mediated by purified HeLa cell topoisomerase II.
Conditions: not given
One may read the EC50 as the midpoint of the concentration-response curve. Molecule `Cc1ccc(S(=O)(=O)/N=c2\ccn(C3CC3)c3c(F)c(-c4cc(C)nc(C)c4)c(F)cc23)cc1` displayed an EC50 of 45 µM.
On the same count and under the same terms, the figure for `Cc1cc(-c2c(F)cc3/c(=N/N4C(=O)c5ccccc5C4=O)ccn(C4CC4)c3c2F)cc(C)n1` is 16 µM; for `Cc1cc(-c2c(F)cc3/c(=N/N(C)C)ccn(C4CC4)c3c2F)cc(C)n1` it is 2.3 µM; for `Cc1cc(-c2c(F)cc3/c(=N/c4ccccn4)ccn(C4CC4)c3c2F)cc(C)n1` it is 3.6 µM.
On to `Cc1cc(-c2c(F)cc3/c(=N/Nc4cnc5ccccc5c4)ccn(C4CC4)c3c2F)cc(C)n1`, for which the EC50 came to 92 µM.
As for `Cc1cc(-c2c(F)cc3/c(=N/CCCN(C)C)ccn(C4CC4)c3c2F)cc(C)n1`, the EC50 is 5.5 µM.
In the case of `CO/N=c1/ccn(C2CC2)c2c(F)c(-c3cc(C)nc(C)c3)c(F)cc12`, the EC50 was 2.6 µM.
On the same count and under the same terms, under `Cc1cc(-c2c(F)cc3/c(=N/C4CC4)ccn(C4CC4)c3c2F)cc(C)n1` stands 2.4 µM; under `Cc1cc(-c2c(F)cc3c(c2F)N(C2CC2)C=CC3=C(C#N)C#N)cc(C)n1`, 6.3 µM.
`Cc1cc(-c2c(F)cc3/c(=N/NCCO)ccn(C4CC4)c3c2F)cc(C)n1` gave an EC50 of 3.2 µM.
On the same count and under the same terms, under `Cc1cc(-c2c(F)cc3/c(=N/c4ccccc4O)ccn(C4CC4)c3c2F)cc(C)n1` stands 1.6 µM.
As for `Cc1cc(-c2c(F)cc3c(=N)ccn(C4CC4)c3c2F)cc(C)n1`, the EC50 came to 12 µM.
On to `Cc1cc(-c2c(F)cc3c(=S)ccn(C4CC4)c3c2F)cc(C)n1`, for which the EC50 came out at 76 µM.
As to `Cc1cc(-c2c(F)cc3/c(=N\O)ccn(C4CC4)c3c2F)cc(C)n1`, the EC50 is 1.4 µM.
For the molecule `Cc1cc(-c2c(F)cc3/c(=N/N)ccn(C4CC4)c3c2F)cc(C)n1`, the EC50 was 1.7 µM.
For the molecule `Cc1cc(-c2c(F)cc3/c(=N/Nc4c5ccccc5nc5ccccc45)ccn(C4CC4)c3c2F)cc(C)n1`, the EC50 came to 21 µM.
As for `CCOC(=O)/C(C#N)=C1\C=CN(C2CC2)c2c1cc(F)c(-c1cc(C)nc(C)c1)c2F`, the EC50 amounted to 4.8 µM.
Take `Cc1cc(-c2c(F)cc3c(c2F)N(C2CC2)C=C/C3=C/C#N)cc(C)n1`: the EC50 came to 4 µM.
Molecule `Cc1cc(-c2c(F)cc3/c(=N/Sc4ccccn4)ccn(C4CC4)c3c2F)cc(C)n1` yielded an EC50 of 3.8 µM.
The molecule `Cc1cc(-c2c(F)cc3/c(=N/c4ccc(N)cc4)ccn(C4CC4)c3c2F)cc(C)n1` showed an EC50 of 7.6 µM.
`CC(=O)N/N=c1\ccn(C2CC2)c2c(F)c(-c3cc(C)nc(C)c3)c(F)cc12` showed an EC50 of 20 µM.
For `CN/N=c1\ccn(C2CC2)c2c(F)c(-c3cc(C)nc(C)c3)c(F)cc12`, the EC50 is 1.9 µM.
On the same count and under the same terms, the figure for `Cc1cc(-c2c(F)cc3/c(=N/Sc4ccc(Cl)cc4)ccn(C4CC4)c3c2F)cc(C)n1` is 9.4 µM; for `Cc1cc(-c2c(F)cc3/c(=N/NC(N)=O)ccn(C4CC4)c3c2F)cc(C)n1` it is 3.1 µM.
Turning to `Cc1cc(-c2c(F)cc3/c(=N/Nc4ccccn4)ccn(C4CC4)c3c2F)cc(C)n1`, the EC50 stood at 0.98 µM.
The molecule `Cc1cc(-c2c(F)cc3/c(=N/CCN(C)C)ccn(C4CC4)c3c2F)cc(C)n1` had an EC50 of 14 µM.

The test is the same for the next values; noted with them: read-out: EC50.
`Cc1cc(-c2c(F)cc3c4nn(-c5ccccc5)c(=O)c-4cn(C4CC4)c3c2F)cc(C)n1`: the EC50 was determined as 2.7 µM.

Another test relates to P388. Description: In vitro cytotoxicity was determined by quantitating P388 murine leukemia cells on a Coulter Counter following a 48 hour exposure of cells to the test compound. Type of test: functional, cell-based. The conditions noted are these: Mus musculus, P388, 48 h.
`COc1cc([C@@H]2c3cc4c(cc3[C@@H](O[C@@H]3O[C@@H]5CO[C@@H](C)O[C@H]5[C@H](O)[C@H]3O)[C@H]3COC(=O)[C@H]23)OCO4)cc(OC)c1O` [ETOPOSIDE] showed an IC50 of 0.12 µM.

The values above are taken from ChEMBL document CHEMBL1128834, “Potent mammalian topoisomerase II inhibitors: 1-cyclopropyl-6,8-difluoro-1,4-dihydro-7-(2,6-dimethyl-4-pyridinyl)-4-substituted-quinolines” (Bioorg Med Chem Lett, 1995).
